Measurements published in patent US12383624B2, “Cargo delivery system and composition comprising the same” (SEOUL NATIONAL UNIVERSITY R&DB FOUNDATION, priority 2018, dated 2025).

Tests used:
RIPK2 = target: T1, RIPK2 (Homo sapiens, UniProt O43353); assay: target protein degradation by immunoblotting (Experimental Example 6); format: cell-based; settings: THP-1 cell line, 24 hours
T1 construct: as cell lines primarily expressing the target protein; endogenous in cells; host or cells: THP-1
Description: (§1) In order to evaluate the target proteion degradation efficacy by Examples 14 to 33 according the disclosure, the following experiment was conducted.
(§2) First, as cell lines primarily expressing the target protein, Human kidney-derived cancer cells, HEK293T (ATCC, CRL-3216), human prostate-derived cancer cells, LNcap (Korean Cell Line Bank, Korean Cell Line Research Foundation, KCLB No. 80018), mouse embryonic fibroblast, MEF (ATCC, SCRC-1008), human cervical cancer cells, HeLa (Korean Cell Line Bank, Korean Cell Line Research Foundation, KCLB No. 10002), human blood-derived cells, K562 (Korean Cell Line Bank, Korean Cell Line Research Foundation, KCLB No. 10243), human blood-derived cells, THP-1 (Korean Cell Line Bank, Korean Cell Line Research Foundation, KCLB No. 40202), human lung-derived cancer cells, A549 (Korean Cell Line Bank, Korean Cell Line Research Foundation, KCLB No. 10185), human breast-derived cancer cells, MCF7 (Korean Cell Line Bank, Korean Cell Line Research Foundation, KCLB No. 30022), human neuroblastoma, SH-SY5Y cell lines (Korean Cell Line Bank, Korean Cell Line Research Foundation, KCLB No. 22266), human pancreatic cancer cells, PANC-1 (Korean Cell Line Bank, Korean Cell Line Research Foundation, KCLB No. 21469) were cultured, respectively, in an incubator maintained at 5% carbon dioxide, using DMEM containing 10% FBS and 1% streptomycin/penicillin, RPMI1640, or MEM medium, and then the respective cells were dispensed in 12-well plate. Additional incubation was performed for 24 hours to ensure that each cell completely fixed to the surface of the plate.
(§3) In order to confirm whether Compounds A to W of Examples 14 to 33 degrade the target protein respectively, the cultured cells were treated with the compound of each example for 24 hours and then collected.
(§4) In this case, HEK293T, which is human kidney-derived cancer cells, LNcap, which is human prostate-derived cancer cells, and MEF cell line, which is mouse embryonic fibroblasts, were treated with Example 14 (Compound A). HEK293T, which is human kidney-derived cancer cells, was treated with Example 15 (Compound B). HEK293T cell line, which is human kidney-derived cancer cells, and HeLa cell line, which is cervical-derived cancer cells, were treated with Example 16 (Compound C). HEK293T cell line, which is human kidney-derived cancer cells, was treated with Example 17 (Compound D). K562 cell line, which is human blood-derived cells, was treated with Example 18 (Compound E). HEK293T cell line, which is human kidney-derived cancer cells, was treated with Example 19 (Compound F). THP-1 cell line, which is human blood-derived cells, was treated with Example 20 (Compound G). A549 cell line, which is human lung-derived cancer cells, was treated with Example 21 (Compound H). A549 cell line, which is human lung-derived cancer cells, was treated with Example 22 (Compound I). MCF7 cell line, which is human breast-derived cancer cells, was treated with Example 23 (Compound J). HEK293T cell line, which is […], was treated with Example 24 (Compound L). SH-SY5Y, which is human neuroblastoma, and HeLa cell line, which is cervical-derived cancer cells, were treated with Example 25 (Compound M). THP-1 cell line, which is human blood-derived cells, was treated with Example 26 (Compound P). SH-SY5Y, which is human neuroblastoma, and HeLa cell line, which is cervical-derived cancer cells, were treated with Example 27 (Compound Q). SH-SY5Y, which is human neuroblastoma, and HeLa cell line, which is cervical-derived cancer cells, were treated with Example 28 (Compound R). HeLa cell line, a human cervical-derived cancer cell, was treated with Example 29 (Compound S). SH-SY5Y cell line, which is human neuroblastoma, was treated with Example 30 (Compound T). SH-SY5Y cell line, which is human neuroblastoma, was treated with Example 31 (Compound U). PANC-1 cell line, which is human pancreatic-derived cancer cells, was treated with Example 32 (Compound V). […]

Cyclin D1 = assay: as above; format: cell-based, human; settings: A549 cell line, 24 hours
Description: as §1, §2, §3, §4

p-STAT3 = target: T2, p-STAT3 (Homo sapiens, UniProt P40763); assay: as above; format: cell-based; settings: A549 cell line, 24 hours
T2 construct: endogenous in cells; host or cells: A549
T2 sequence (P40763 whole entry): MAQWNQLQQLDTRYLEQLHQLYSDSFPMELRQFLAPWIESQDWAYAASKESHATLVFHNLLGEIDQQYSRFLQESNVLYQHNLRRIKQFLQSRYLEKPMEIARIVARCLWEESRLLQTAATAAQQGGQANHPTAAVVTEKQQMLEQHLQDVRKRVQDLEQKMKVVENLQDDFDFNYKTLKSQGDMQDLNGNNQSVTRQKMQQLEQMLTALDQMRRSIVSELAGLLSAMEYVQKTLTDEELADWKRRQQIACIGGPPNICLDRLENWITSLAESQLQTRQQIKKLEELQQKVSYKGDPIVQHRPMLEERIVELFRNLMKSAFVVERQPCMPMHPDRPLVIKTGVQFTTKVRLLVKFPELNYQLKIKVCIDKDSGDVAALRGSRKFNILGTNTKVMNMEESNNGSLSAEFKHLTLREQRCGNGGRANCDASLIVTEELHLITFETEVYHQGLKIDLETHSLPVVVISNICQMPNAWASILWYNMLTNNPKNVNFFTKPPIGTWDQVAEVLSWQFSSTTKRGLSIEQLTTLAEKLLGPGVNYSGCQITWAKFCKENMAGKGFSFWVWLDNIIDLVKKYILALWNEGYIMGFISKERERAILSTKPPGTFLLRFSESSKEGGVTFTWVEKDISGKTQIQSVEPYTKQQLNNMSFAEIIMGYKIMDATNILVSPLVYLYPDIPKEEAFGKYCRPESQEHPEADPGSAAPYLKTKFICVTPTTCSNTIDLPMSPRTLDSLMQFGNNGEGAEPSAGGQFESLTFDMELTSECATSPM
Description: as §1, §2, §3, §4

STAT3 = target: T3, STAT3 (Homo sapiens, UniProt P40763); assay: as above; format: cell-based; settings: A549 cell line, 24 hours
T3 construct: as cell lines primarily expressing the target protein; endogenous in cells; host or cells: A549
T3 sequence (P40763 whole entry): as above
Description: as §1, §2, §3, §4

Tau = assay: as above; format: cell-based, human; settings: 24 hours
Description: as §1, §2, §3, §4

α-synuclein(A53T) = target: T4, α-synuclein(A53T) (Homo sapiens, UniProt P37840, A53T); assay: as above; format: cell-based; settings: 24 hours
T4 construct: expressed in transfected cells; host or cells: SH-SY5Y (Compound U); SH-SY5Y or HeLa (Compound M)
Description: as §1, §2, §3, §4

Desmin Mut(L385P) = target: T5, Desmin Mut(L385P) (Homo sapiens, UniProt P17661, L385P); assay: as above; format: cell-based; settings: 24 hours
T5 construct: expressed in transfected cells; host or cells: HeLa (Compound S); SH-SY5Y or HeLa (Compounds M, Q, R)
T5 sequence (P17661 whole entry L385P): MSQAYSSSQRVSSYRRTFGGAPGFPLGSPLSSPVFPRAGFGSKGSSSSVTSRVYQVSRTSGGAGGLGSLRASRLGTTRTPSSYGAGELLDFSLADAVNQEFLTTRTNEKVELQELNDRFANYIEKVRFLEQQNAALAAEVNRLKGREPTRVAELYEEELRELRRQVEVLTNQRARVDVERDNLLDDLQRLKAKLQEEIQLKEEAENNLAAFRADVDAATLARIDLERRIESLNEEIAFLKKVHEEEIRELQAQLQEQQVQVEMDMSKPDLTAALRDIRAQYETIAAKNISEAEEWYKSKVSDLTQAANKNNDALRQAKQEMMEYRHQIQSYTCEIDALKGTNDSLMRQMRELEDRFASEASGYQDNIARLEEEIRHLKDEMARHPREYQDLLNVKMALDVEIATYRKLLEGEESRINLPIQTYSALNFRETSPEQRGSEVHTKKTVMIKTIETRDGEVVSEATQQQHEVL
Description: as §1, §2, §3, §4

p62 protein = target: T6, p62 protein (Homo sapiens, UniProt Q13501); assay: oligomerization activity of p62 protein in cultured cells by immunoblotting; format: cell-based; design: dose or concentration left out as unconfirmed; settings: HEK293 cell line, 2 hr, unlike DMSO control
T6 construct: endogenous in cells; host or cells: HEK293
T6 sequence (Q13501 whole entry): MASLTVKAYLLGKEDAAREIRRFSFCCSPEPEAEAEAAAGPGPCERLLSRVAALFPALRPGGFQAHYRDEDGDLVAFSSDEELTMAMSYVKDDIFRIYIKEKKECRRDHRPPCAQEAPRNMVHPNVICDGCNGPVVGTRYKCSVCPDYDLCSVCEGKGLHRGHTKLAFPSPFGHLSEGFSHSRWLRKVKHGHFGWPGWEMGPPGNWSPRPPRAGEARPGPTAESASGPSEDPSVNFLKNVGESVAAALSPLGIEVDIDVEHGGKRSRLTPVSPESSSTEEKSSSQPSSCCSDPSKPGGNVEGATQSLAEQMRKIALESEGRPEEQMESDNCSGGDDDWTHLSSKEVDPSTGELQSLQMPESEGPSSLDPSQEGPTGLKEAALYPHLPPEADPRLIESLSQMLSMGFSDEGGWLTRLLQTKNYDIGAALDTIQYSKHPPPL
Description: In order to evaluate the oligomerization activity efficacy of p62 protein according to examples of the disclosure, HEK293 cell line, which is human embryonic kidney-derived cell, was collected. The cell lines were treated with Example 3 (PBA 1104), Example 4 (PBA 1105), Example 5 (Anle F105), Example 8 (PHTPP 1304), Example 11 (BTA-1 1104), Example 12 (Curcumin 1204), Example 1 (ATC 1105), Example 2 (ATC 1104), Example 10 (Resv 1105), Example 13 (Rilu 204) according to the examples, YTK-1105 compound, which is an autophagy targeting ligand compound as a comparative example, and DMSO as a control […], 2 hr, respectively.
In order to measure intracellular p62 protein activation and oligomerization in cells according to the treatment with these compounds, the respective cells were dispensed into a 100 pi dish. The cells were collected after further culturing for 24 hours so that the cells were completely attached to the surface of the plate. 100 μl of lysis buffer (20 mM Tris (pH 7.4), 150 mM NaCl, 1% Triton X-100, 2 mM NaF, 2 mM EDTA, 2 mM beta-glycerophosphate, 5 mM sodium orthovanadate, 1 mM PMSF, leupeptin, aproteinin) were injected into each sample and the cells were lysed. Based on the measured total protein concentration, each sample was treated with test compounds at room temperature for 2 hours, and then a sample buffer was added and allowed to react at 95° C. for 10 minutes. […]

[1] = SH-SY5Y and HeLa cell lines treated

T1 sequence (O43353 whole entry): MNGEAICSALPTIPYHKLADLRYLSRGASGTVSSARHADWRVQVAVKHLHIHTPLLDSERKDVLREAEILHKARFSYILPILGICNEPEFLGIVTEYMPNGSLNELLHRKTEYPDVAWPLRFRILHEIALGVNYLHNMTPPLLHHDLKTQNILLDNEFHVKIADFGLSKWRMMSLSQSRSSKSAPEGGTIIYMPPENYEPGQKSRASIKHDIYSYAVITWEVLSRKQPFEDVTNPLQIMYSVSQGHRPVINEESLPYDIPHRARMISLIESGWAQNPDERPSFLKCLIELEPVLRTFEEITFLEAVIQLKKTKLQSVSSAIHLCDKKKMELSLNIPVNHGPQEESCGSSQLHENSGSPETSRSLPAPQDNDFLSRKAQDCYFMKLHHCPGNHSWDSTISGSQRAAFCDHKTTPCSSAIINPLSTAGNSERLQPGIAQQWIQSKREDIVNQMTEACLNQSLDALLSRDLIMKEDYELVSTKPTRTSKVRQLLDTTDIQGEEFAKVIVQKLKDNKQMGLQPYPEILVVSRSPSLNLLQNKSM

CC(C)(C)S(=O)(=O)c1cc2c(Nc3ccc4scnc4c3)ncnc2cc1OCCNCCOCCOCCNCc1cccc(OCc2ccccc2)c1 [Example 20, N-(7-((1-(3-(benzyloxy)phenyl)-5,8-dioxa-2,11-diazatridecan-13-yl)oxy)-6-(tert-butylsulfonyl)quinazolin-4-yl)benzo[d]thiazol-5-amine]
degradation of target protein RIPK2 (decrease in level vs Control) (RIPK2): can be degraded

NC(=O)CC[C@H](NC(=O)[C@@H]1CC[C@@H]2CCN(C(=O)CCCOCCOCCOCCOCCNC[C@@H](O)COc3ccc(OCc4ccc(F)cc4)c(OCc4ccc(F)cc4)c3)C[C@H](NC(=O)c3cc4cc(C(F)(F)P(=O)(O)O)ccc4[nH]3)C(=O)N21)C(=O)NC(c1ccccc1)c1ccccc1 [Example 21, ((2-(((5S,8S,10aR)-8-(((S)-5-amino-1-(benzhydrylamino)-1,5-dioxopentan-2-yl)carbamoyl)-3-((R)-1-(3,4-bis((4-fluorobenzyl)oxy)phenoxy)-2-hydroxy-7,10,13,16-tetraoxa-4-azaicosan-20-oyl)-6-oxodecahydropyrrolo[1,2-a][1,5]diazocin-5-yl)carbamoyl)-1H-indol-5-yl)difluoromethyl)phosphonic acid]
degradation of target protein Cyclin D1 (decrease in level vs Control) (Cyclin D1): can be degraded | degradation of target protein p-STAT3 (decrease in level vs Control) (p-STAT3): can be degraded | degradation of target protein STAT3 (decrease in level vs Control) (STAT3): can be degraded

NC(=O)CC[C@H](NC(=O)[C@@H]1CC[C@@H]2CCN(C(=O)CCCOCCOCCOCCOCCNCc3ccc(OCc4ccccc4)c(OCc4ccccc4)c3)C[C@H](NC(=O)c3cc4cc(C(F)(F)P(=O)(O)O)ccc4[nH]3)C(=O)N21)C(=O)NC(c1ccccc1)c1ccccc1 [Example 22, ((2-(((5S,8S,10aR)-8-(((S)-5-amino-1-(benzhydrylamino)-1,5-dioxopentan-2-yl)carbamoyl)-3-(1-(3,4-bis(benzyloxy)phenyl)-5,8,11,14-tetraoxa-2-azaoctadecan-18-oyl)-6-oxodecahydropyrrolo[1,2-a][1,5]diazocin-5-yl)carbamoyl)-1H-indol-5-yl)difluoromethyl)phosphonic acid]
degradation of target protein Cyclin D1 (decrease in level vs Control) (Cyclin D1): can be degraded | degradation of target protein p-STAT3 (decrease in level vs Control) (p-STAT3): can be degraded | degradation of target protein STAT3 (decrease in level vs Control) (STAT3): can be degraded

O=C(c1cc(-c2cc3c(cc2C(=O)N2Cc4ccccc4C[C@H]2CN2CCN(CCOCCOCCOCCOCCNCc4ccc(OCc5ccccc5)c(OCCc5ccccc5)c4)CC2)OCO3)n2c1CCCC2)N(c1ccccc1)c1ccc(O)cc1 [Example 25, (S)-3-(6-(3-((4-(1-(4-(benzyloxy)-3-phenethoxyphenyl)-5,8,11,14-tetraoxa-2-azahexadecan-16-yl)piperazin-1-yl)methyl)-1,2,3,4-tetrahydroisoquinoline-2-carbonyl)benzo[d][1,3]dioxol-5-yl)-N-(4-hydroxyphenyl)-N-phenyl-5,6,7,8-tetrahydroindolizine-1-carboxamide]
degradation of target protein Tau (decrease in level vs Control) (Tau; [1]): can be degraded | degradation of target protein α-synuclein(A53T) (decrease in level vs Control) (α-synuclein(A53T); [1]): can be degraded | degradation of target protein Desmin Mut(L385P) (decrease in level vs Control) (Desmin Mut(L385P); [1]): can be degraded

CC(C)(C)S(=O)(=O)c1cc2c(Nc3ccc4scnc4c3)ncnc2cc1OCCNCCOCCOCCOCCOCCOCCNC[C@@H](O)COc1ccc(OCc2ccc(F)cc2)c(OCc2ccc(F)cc2)c1 [Example 26, (R)-1-((4-(benzo[d]thiazol-5-ylamino)-6-(tert-butylsulfonyl)quinazolin-7-yl)oxy)-24-(3,4-bis((4-fluorobenzyl)oxy)phenoxy)-6,9,12,15,18-pentaoxa-3,21-diazatetracosan-23-ol]
degradation of target protein RIPK2 (decrease in level vs Control) (RIPK2): can be degraded

O=C(CCCc1ccccc1)NCCOCCOCCOCCOCCOCCNCc1ccc(OCc2ccccc2)c(OCc2ccccc2)c1 [Example 27, N-(1-(3,4-bis(benzyloxy)phenyl)-5,8,11,14,17-pentaoxa-2-azanonadecan-19-yl)-4-phenylbutanamide]
degradation of target protein Tau (decrease in level vs Control) (Tau; [1]): can be degraded | degradation of target protein Desmin Mut(L385P) (decrease in level vs Control) (Desmin Mut(L385P); [1]): can be degraded

O=C(CCCc1ccccc1)NCCOCCOCCOCCOCCOCCOCCOCCNCc1ccc(OCc2ccccc2)c(OCc2ccccc2)c1 [Example 28, N-(1-(3,4-bis(benzyloxy)phenyl)-5,8,11,14,17,20,23-heptaoxa-2-azapentacosan-25-yl)-4-phenylbutanamide]
degradation of target protein Tau (decrease in level vs Control) (Tau; [1]): can be degraded | degradation of target protein Desmin Mut(L385P) (decrease in level vs Control) (Desmin Mut(L385P); [1]): can be degraded

O=C(CCCc1ccccc1)NCCOCCOCCOCCNC[C@@H](O)COc1ccc(OCc2ccc(F)cc2)c(OCc2ccc(F)cc2)c1 [Example 29, (R)—N-(15-(3,4-bis((4-fluorobenzyl)oxy)phenoxy)-14-hydroxy-3,6,9-trioxa-12-azapentadecyl)-4-phenylbutanamide]
degradation of target protein Desmin Mut(L385P) (decrease in level vs Control) (Desmin Mut(L385P); HeLa cell line): can be degraded

CN(CCOCCOCCOCCNCc1ccc(OCc2ccccc2)c(OCc2ccccc2)c1)c1ccc2nc3ccc(=[N+](C)C)cc-3sc2c1 [Example 31, N-(7-((1-(3,4-bis(benzyloxy)phenyl)-5,8,11-trioxa-2-azatridecan-13-yl) (methyl)amino)-3H-phenothiazin-3-ylidene)-N-methylmethanaminium 2,2,2-trifluoroacetate]
degradation of target protein Tau (decrease in level vs Control) (Tau; SH-SY5Y cell line): can be degraded | degradation of target protein α-syn. Mut(A53T) (decrease in level vs Control) (α-synuclein(A53T); SH-SY5Y cell line): can be degraded

OCCNCc1ccc(OCc2ccccc2)c(OCc2ccccc2)c1 [YTK-1105]
monomer of p62 proteins (p62 protein): decrease | p62 oligomers and high-molecular aggregates (p62 protein): increase
